Test results taken from article PMC7006505, “Chemical biology tools for probing transcytosis at the blood–brain barrier” (Chemical Science, 2019).
Bridge positions count the residues as written; N and C are the ends. Square brackets hold non-standard residues; d marks the D form. Triazole bridges read from a SMILES are 1,4-linked. Ends that are not written are not given here. I, II: the chains in the order shown. * marks the point of attachment. 5FAM = O=C1OC2(c3ccc(O)cc3Oc3cc(O)ccc32)c2ccc(C(=O)*)cc21; Lys(N3) = [N-]=[N+]=NCCCC[C@H](N)C(=O)O; Pra = C#CC[C@H](N)C(=O)O

Test system: bEnd.3/MSC co-culture
Experiment: Transcytosis assay, transwell in vitro BBB model with dex-TexR correction (cPapp)
Type: in vitro ADME, mouse
Conditions: apical to basolateral; for cPapp at 4 °C: FAM-labelled vehicle co-incubated with dex-TexR, corrected for paracellular diffusion; for cPapp at 4 °C / fold increase in permeability (cPapp) relative to Tf-A647: fluorescence read-out; for fold increase in permeability (cPapp) relative to Tf-A647: bEnd.3/MSC co-culture on polyester transwell inserts (0.4 µm pore), 0.5 µM vehicle with 5 µM dex-TexR (3000 Da), DMEM without FCS after 1 h serum starvation, three inserts with and without culture, paracellular contribution subtracted
Description: To study transcytosis potential of the vehicles in vitro we optimised a BBB model using a 3D-transwell format. […] This is similar to results shown by others.[16] Immunostaining for TJ protein ZO-1 in the bEnd.3 cell line confirmed its presence and trafficking towards the cell junctions (Fig. S7 ^†).
It seemed plausible that a similar sized marker (such as TexasRed labelled dextran (dex-TexR; 3000 g mol^–1)) that is incapable of AMT or RMT uptake could serve as an internal standard to quantify paracellular contribution of the vehicles. As exemplified in Fig. 4A, experiments are performed in parallel with probes (both dex-TexR and FAM-PPII vehicle or Tf-A647) fed to insets containing either the cell monolayer (PSt) or filter alone (PSf). The corresponding Papp for dex-TexR in both scenarios is first calculated and the extent in which movement is reduced by presence of the monolayer (defined here as the transport ratio (TR)) is used to determine the expected paracellular diffusion rate of the individual vehicles. We employed Tf-A647 and a similarly sized TexasRed labelled dextran (dex-TexR; 70 000 g mol^–1) as a positive control for transcytosis. […] When incubated in the presence of cells, dex-TexR was detected in the basolateral compartment indicating background paracellular flux. However, Tf-A647 was cleared at a faster rate in comparison, confirming transcytosis of the molecule.
Fig. 4 Modified workflow and results for determining the cPapp of a macromolecule, accounting for contributions made by paracellular diffusion across an in vitro barrier. […] (B–C) Clearance plots obtained by incubation of Tf-A647 or dex-TexR with filters alone (B; PSf) or with cells (C; PSt). […] Division of PSt/PSf for dextran generates the transport ratio (TR). Expected paracellular contribution of the vehicle is obtained by multiplying TR by the Papp of the compound of interest without cells. cPapp values are obtained by subtracting this value from Papp of compound with cells. Key: red = dex-TexR; blue = Tf-A647; dashed lines = filter insert only; solid lines = transwell culture (D) cPapp values for delivery vehicles screened in the transcytosis assay.
(3 × 1 mL), and trypsinisation was conducted using a solution of 0.25 % (w/v) trypsin-EDTA solution (0.5 mL, 3 min, 37 °C, 5 % CO2 incubation), unless otherwise specified. When required, a Scan Speed 1580R centrifuge (Labmode) was used to pellet cell suspensions. All tissue culture work was performed in sterilised Corning well plates, and cell based assays used DMEM media (ThermoFisher, #31053028) without FCS and phenol red, unless otherwise specified. bEND.3 cells were a gift from Rachael Brown (Kings College London), while MSC cells were a gift from the Battaglia group (University College London).
Cells were maintained in high glucose Dulbecco’s Modified Eagle’s Medium (DMEM) (ATCC #30-2002) supplemented with 10 % FCS. Cells were sub-cultured routinely using trypsin solution once 100 % confluence was achieved. For uptake and transcytosis studies, cells under passage number 30 were used. After this time, these cells may begin to lose their barr ier functionality, as identified from an extensive study performed by Brown et al.1 Mesenchymal stem cells (MSC)
MSC, as surrogates for pericytes, were maintained in DMEM/F12 medium containing GlutaMAX and L-glutamine (2 mM) (ThermoFisher, #10565-018), supplemented with 10 % FCS and 5 μg/mL Gentamicin (SIGMA, G1397). Cultures were sub -cultured routinely using trypsin solution once 70 -80 % confluence was achieved.
For all transcytosis assays, polyester filter inserts (Corning, #3460; 0.4 µm pore, 12 mm diameter, 10 µm thick) were used in 12-well cell culture plates. Optimum media volumes were calculated to be 950 µL and 475 µL for apical and basolateral chambers respectively. Both chambers were coated with rat tail collagen (5 µg/cm2) for 2 h at room temperature prior to use. bEND.3 cells were seeded at a density of 2 × 10^4 cells/well onto insets, and grown to […]

Molecule | cPapp at 4 °C (bEnd.3/MSC transwell) [cm/min x 10^-5] | fold increase in permeability (cPapp) relative to Tf-A647 (37 °C) [fold] | transcytosis / permeability in BBB model, in words (bEnd.3/MSC transwell, 0.5 µM vehicle, 37 °C, cPapp)
Tf-A647: human derived AlexaFluor 647-conjugated transferrin [reference compound] | 0.09 |  | 
I: 5FAM-VR[Pra]PPPVRLPPP[Pra]RLPPP-NH2 / II: [Lys(N3)]THRPPMWSPVWP-NH2 / III: [Lys(N3)]THRPPMWSPVWP-NH2 (triazole I:3-III:1, I:13-II:1) [PPII(L3X;V13X)TfRL1] |  | 3.5 | 
CC(C)C[C@H](NC(=O)[C@H](CCCNC(=N)N)NC(=O)[C@@H](NC(=O)[C@@H]1CCCN1C(=O)[C@@H]1CCCN1C(=O)[C@@H]1CCCN1C(=O)[C@H](CC(C)C)NC(=O)[C@H](Cc1cn(CCCC[C@H](N)C(=O)N[C@H](C(=O)N[C@@H](Cc2ccccc2)C(=O)N[C@@H](Cc2ccccc2)C(=O)N[C@@H](Cc2ccc(O)cc2)C(=O)NCC(=O)NCC(=O)N[C@@H](CO)C(=O)N[C@@H](CCCNC(=N)N)C(=O)NCC(=O)N[C@@H](CCCCN)C(=O)N[C@@H](CCCNC(=N)N)C(=O)N[C@@H](CC(N)=O)C(=O)N[C@@H](CC(N)=O)C(=O)N[C@@H](Cc2ccccc2)C(=O)N[C@@H](CCCCN)C(=O)N[C@H](C(=O)N[C@@H](CCC(=O)O)C(=O)N[C@@H](CCC(=O)O)C(=O)N[C@@H](Cc2ccc(O)cc2)C(N)=O)[C@@H](C)O)[C@@H](C)O)nn1)NC(=O)[C@@H](NC(=O)[C@@H]1CCCN1C(=O)[C@@H]1CCCN1C(=O)[C@@H]1CCCN1C(=O)[C@H](CC(C)C)NC(=O)[C@H](CCCNC(=N)N)NC(=O)[C@@H](NC(=O)c1ccc2c(c1)C(=O)OC21c2ccc(O)cc2Oc2cc(O)ccc21)C(C)C)C(C)C)C(C)C)C(=O)N1CCC[C@H]1C(=O)N1CCC[C@H]1C(=O)N1CCC[C@H]1C(N)=O [PPII(R8X)APep2] | -0.058 | 4.9 | 
CC[C@H](C)[C@H](NC(=O)[C@H](C)NC(=O)[C@H](Cc1c[nH]cn1)NC(=O)[C@@H](N)CCCCn1cc(C[C@H](NC(=O)[C@@H](NC(=O)[C@@H]2CCCN2C(=O)[C@@H]2CCCN2C(=O)[C@@H]2CCCN2C(=O)[C@H](CC(C)C)NC(=O)[C@H](CCCNC(=N)N)NC(=O)[C@@H](NC(=O)c2ccc3c(c2)C(=O)OC32c3ccc(O)cc3Oc3cc(O)ccc32)C(C)C)C(C)C)C(=O)N[C@@H](CC(C)C)C(=O)N2CCC[C@H]2C(=O)N2CCC[C@H]2C(=O)N2CCC[C@H]2C(=O)N[C@H](C(=O)N[C@@H](CCCNC(=N)N)C(=O)N[C@@H](CC(C)C)C(=O)N2CCC[C@H]2C(=O)N2CCC[C@H]2C(=O)N2CCC[C@H]2C(N)=O)C(C)C)nn1)C(=O)N[C@@H](Cc1ccc(O)cc1)C(=O)N1CCC[C@H]1C(=O)N[C@@H](CCCNC(=N)N)C(=O)N[C@@H](Cc1c[nH]cn1)C(N)=O [PPII(R8X)TfRL2] | -0.085 | 1.4 | 
I: 5FAM-VR[Pra]PPPVRLPPPVR[Pra]PPP-NH2 / II: [Lys(N3)]THRPPMWSPVWP-NH2 / III: [Lys(N3)]THRPPMWSPVWP-NH2 (triazole I:3-III:1, I:15-II:1) [PPII(L3X;L15X)TfRL1] | -0.079 | 3.0 | 
CC(C)C[C@H](NC(=O)[C@H](CCCNC(=N)N)NC(=O)[C@@H](NC(=O)[C@@H]1CCCN1C(=O)[C@@H]1CCCN1C(=O)[C@@H]1CCCN1C(=O)[C@H](Cc1cn(CCCC[C@H](N)C(=O)N[C@H](C(=O)N[C@@H](Cc2ccccc2)C(=O)N[C@@H](Cc2ccccc2)C(=O)N[C@@H](Cc2ccc(O)cc2)C(=O)NCC(=O)NCC(=O)N[C@@H](CO)C(=O)N[C@@H](CCCNC(=N)N)C(=O)NCC(=O)N[C@@H](CCCCN)C(=O)N[C@@H](CCCNC(=N)N)C(=O)N[C@@H](CC(N)=O)C(=O)N[C@@H](CC(N)=O)C(=O)N[C@@H](Cc2ccccc2)C(=O)N[C@@H](CCCCN)C(=O)N[C@H](C(=O)N[C@@H](CCC(=O)O)C(=O)N[C@@H](CCC(=O)O)C(=O)N[C@@H](Cc2ccc(O)cc2)C(N)=O)[C@@H](C)O)[C@@H](C)O)nn1)NC(=O)[C@H](CCCNC(=N)N)NC(=O)[C@@H](NC(=O)c1ccc2c(c1)C(=O)OC21c2ccc(O)cc2Oc2cc(O)ccc21)C(C)C)C(C)C)C(=O)N1CCC[C@H]1C(=O)N1CCC[C@H]1C(=O)N1CCC[C@H]1C(=O)N[C@H](C(=O)N[C@@H](CCCNC(=N)N)C(=O)N[C@@H](Cc1cn(CCCC[C@H](N)C(=O)N[C@H](C(=O)N[C@@H](Cc2ccccc2)C(=O)N[C@@H](Cc2ccccc2)C(=O)N[C@@H](Cc2ccc(O)cc2)C(=O)NCC(=O)NCC(=O)N[C@@H](CO)C(=O)N[C@@H](CCCNC(=N)N)C(=O)NCC(=O)N[C@@H](CCCCN)C(=O)N[C@@H](CCCNC(=N)N)C(=O)N[C@@H](CC(N)=O)C(=O)N[C@@H](CC(N)=O)C(=O)N[C@@H](Cc2ccccc2)C(=O)N[C@@H](CCCCN)C(=O)N[C@H](C(=O)N[C@@H](CCC(=O)O)C(=O)N[C@@H](CCC(=O)O)C(=O)N[C@@H](Cc2ccc(O)cc2)C(N)=O)[C@@H](C)O)[C@@H](C)O)nn1)C(=O)N1CCC[C@H]1C(=O)N1CCC[C@H]1C(=O)N1CCC[C@H]1C(N)=O)C(C)C [PPII(L3X;L15X)APep2] |  |  | limited transcytosis
CC[C@H](C)[C@H](NC(=O)[C@H](C)NC(=O)[C@@H](N)Cc1c[nH]cn1)C(=O)N[C@@H](Cc1ccc(O)cc1)C(=O)N1CCC[C@H]1C(=O)N[C@@H](CCCNC(=N)N)C(=O)N[C@@H](Cc1c[nH]cn1)C(=O)NCCCC[C@H](NC(=O)[C@H](CCCNC(=N)N)NC(=O)[C@@H](NC(=O)[C@@H]1CCCN1C(=O)[C@@H]1CCCN1C(=O)[C@@H]1CCCN1C(=O)[C@H](CC(C)C)NC(=O)[C@H](CCCNC(=N)N)NC(=O)[C@@H](NC(=O)[C@@H]1CCCN1C(=O)[C@@H]1CCCN1C(=O)[C@@H]1CCCN1C(=O)[C@H](Cc1cn(CCCC[C@H](N)C(=O)N[C@H](C(=O)N[C@@H](Cc2ccccc2)C(=O)N[C@@H](Cc2ccccc2)C(=O)N[C@@H](Cc2ccc(O)cc2)C(=O)NCC(=O)NCC(=O)N[C@@H](CO)C(=O)N[C@@H](CCCNC(=N)N)C(=O)NCC(=O)N[C@@H](CCCCN)C(=O)N[C@@H](CCCNC(=N)N)C(=O)N[C@@H](CC(N)=O)C(=O)N[C@@H](CC(N)=O)C(=O)N[C@@H](Cc2ccccc2)C(=O)N[C@@H](CCCCN)C(=O)N[C@H](C(=O)N[C@@H](CCC(=O)O)C(=O)N[C@@H](CCC(=O)O)C(=O)N[C@@H](Cc2ccc(O)cc2)C(N)=O)[C@@H](C)O)[C@@H](C)O)nn1)NC(=O)[C@H](CCCNC(=N)N)NC(=O)[C@@H](NC(=O)c1ccc2c(c1)C(=O)OC21c2ccc(O)cc2Oc2cc(O)ccc21)C(C)C)C(C)C)C(C)C)C(=O)N1CCC[C@H]1C(=O)N1CCC[C@H]1C(=O)N1CCC[C@H]1C(N)=O [PPII(L3X;L15K)TfRL2(K);APep2(X)] |  | 1.8 | 
